In patent publication US20250188041A1, “NEW COMPOUNDS AND TREATMENT OF RENAL CELL CARCINOMA” (Trustlife Global Inc., priority 2022, published 2025):
Entries after “also recorded” stand apart in the source; their conditions may differ. *1 amine or outer side, *2 acyl side, *3 side chain or, on linkers, in order; H or OH if unused. Where a SMILES comes first, the peptide text is derived from it. Bridges are numbered along the chain shown (N, C = ends). Roman numbers before positions name the chains, in order. [ ]: non-standard residue; d: D form. Actinocin(9to1) = Cc1c2oc3c(C)ccc(C(=O)[*:1])c3nc-2c(C(=O)[*:2])c(N)c1=O; NMeV = CN[C@H](C(=O)O)C(C)C; Sar = CNCC(=O)O

Tests used:
Format in all cases: cell-based, Human
RRM2 = assay: Western blot, RRM2 protein level in Caki-1 treated with repurposed drugs; conditions: 24 h, vs DMSO control
Description: (§1) Cell culture 1: Human clear cell renal cell carcinoma (ccRCC) cell line Caki-1 was obtained from the Karolinska Institute of Environmental Medicine, Stockholm, Sweden, derived from a ccRCC patient. The cells were cultured in RPMI 1640 medium with 10% fetal bovine serum (FBS) and 1% penicillin/streptomycin. The cells were cultivated at 37° C. in a humidified incubator with 5% CO2. TG-101209, NVP-TAE684, MK-0752, actinomycin-d, and panobinostat were purchased from Selleckchem ([…], […], […], […], […], Selleckchem, Houston, TX, USA), and withaferin-a was purchased from Sigma (W4394, Sigma-Aldrich, Saint Louis, MO, USA). These drugs were dissolved in DMSO. The cells (from cell culture 1) were seeded in a 96-well plate at 20×10^3 cells per well. After seeding for 24 h, the cells were treated for 24 h with the target drugs: TG-101209 (6 nM), NVP-TAE684 (3 nM), MK-0752 (5 nM), withaferin-a (4 uM), actinomycin-d (0.3 nM), and panobinostat (5 nM). The cells in the negative control group were only treated by DMSO for one day. The cells were washed with phosphate-buffered saline (PBS) and lysed with CelLytic M ([…], Sigma-Aldrich, Saint Louis, MO, USA) lysis buffer containing protease inhibitors. The lysates were centrifuged at 12 000 rpm for 5 min, and the supernatant was collected. The proteins were separated by Mini-PROTEAN® TGXTM Precast Gels (BioRad, Berkeley, CA, USA) and transferred to a Trans-Blot Turbo Mini 0.2 um PVDF Transfer Packs membrane (BioRad, Berkeley, CA, USA) by using Trans-Blot® TurboTM Transfer System (Bio-Rad, Berkeley, CA, USA). The antibodies for BUB1B (HPA008419), RRM2 (HPA056994), CEP55 (HPA023430), ASF1B(HPA069385), CCNB2 (HPA008873), and GAPDH (sc47724, Santa Cruz Biotechnology, Inc.) were used for primary immunoblotting. All the antibodies were diluted at 1:10000 concentration. The membranes were incubated in primary antibody solution overnight at 4° C. with gentle rocking. […] The protein bands were detected with ImageQuanattm LAS 500 (29-0050-63, GE) automatic exposure procedure or 6 min exposure.

Caki-1 = assay: CCK-8 cell viability assay of drug-treated Caki-1; conditions: 24 h, vs DMSO control
Description: Cell culture 1: Human clear cell renal cell carcinoma (ccRCC) cell line Caki-1 was obtained from the Karolinska Institute of Environmental Medicine, Stockholm, Sweden, derived from a ccRCC patient. The cells were cultured in RPMI 1640 medium with 10% fetal bovine serum (FBS) and 1% penicillin/streptomycin. The cells were cultivated at 37° C. in a humidified incubator with 5% CO2. TG-101209, NVP-TAE684, MK-0752, actinomycin-d, and panobinostat were purchased from Selleckchem ([…], […], […], […], […], Selleckchem, Houston, TX, USA), and withaferin-a was purchased from Sigma (W4394, Sigma-Aldrich, Saint Louis, MO, USA). These drugs were dissolved in DMSO. The cells (from cell culture 1) were seeded in a 96-well plate at 20×10^3 cells per well. After seeding for 24 h, the cells were treated for 24 h with the target drugs: TG-101209 (6 nM), NVP-TAE684 (3 nM), MK-0752 (5 nM), withaferin-a (4 uM), actinomycin-d (0.3 nM), and panobinostat (5 nM). The cells in the negative control group were only treated by DMSO for one day. Cell proliferation was detected by Cell Counting Kit-8 (CCK-8) assay. The 10 μl of CCK-8 reagent (1:10) was added to each well of 96-well plate with siRNA transfected cells or drug-treated cells by manufacturer's instruction. The 96-well plate was incubated at 37° C. for 2 hours and then measured absorbance at 450 nm using a microplate reader (Hidex Sense Beta Plus).

BUB1B [1] = assay: Western blot, BUB1B protein level in Caki-1 treated with repurposed drug; conditions: Caki-1, 6 nM, 24 h, compared to negative control (DMSO)
Description: as §1, with “inhibitors.” for “inhibitors. The lysates were centrifuged at 12 000 rpm for 5 min, and the supernatant was collected. The proteins were separated by Mini-PROTEAN® TGXTM Precast Gels (BioRad, Berkeley, CA, USA) and transferred to a Trans-Blot Turbo Mini 0.2 um PVDF Transfer Packs membrane (BioRad, Berkeley, CA, USA) by using Trans-Blot® TurboTM Transfer System (Bio-Rad, Berkeley, CA, USA). The antibodies for BUB1B (HPA008419), RRM2 (HPA056994), CEP55 (HPA023430), ASF1B(HPA069385), CCNB2 (HPA008873), and GAPDH (sc47724, Santa Cruz Biotechnology, Inc.) were used for primary immunoblotting. All the antibodies were diluted at 1:10000 concentration. The membranes were incubated in primary antibody solution overnight at 4° C. with gentle rocking.”

BUB1B [2] = assay: Western blot, BUB1B expression in Caki-1 treated with TG-101209 alternatives; conditions: Caki-1, 5 μM of target drug, 1 day (FIG. 41; method says 2 days)
Description: (§2) Cell culture 2: Caki-1 was purchased from CLS Cell Lines Service (Germany). The cells were maintained in McCoy's SA (modified) medium (16600082, Thermo Fisher Scientific, USA) and supplemented with 10% fetal bovine serum (FBS, F7524, Sigma-Aldrich), 1% Penicillin/Streptomycin (P4333, Sigma-Aldrich).
The target drugs developed as alternatives to TG-101209, were dissolved in 0.1% DMSO (41639, Sigma-Aldrich). Caki-1 cells from cell culture 2 were seeded in a 6-well plate at 3×10^5 cells per well. […]
The cells were washed with PBS solution and then lysed with CelLytic M (C2978, Sigma-Aldrich) lysis buffer containing protease inhibitors (11836170001, Roche). The cell lysates were centrifuged at 12 000 rpm for 10 min and supernatants were collected. Protein Assay Dye Reagent (5000006, Bio-Rad) was used for the determination of protein concentration. The absorbance of the proteins was measured spectrophotometrically at 595 nm by a microplate reader (Hidex Sense Beta Plus). Protein electrophoresis was performed using Mini-PROTEAN® TGX™ Precast Gels (4561086, Bio-Rad) and then the separated proteins were transferred to a Trans-Blot Turbo Mini 0.2 um PVDF Transfer Packs membrane (1704158, Bio-Rad) by using Trans-Blot® Turbo™ Transfer System (Bio-Rad). The membrane was blocked with 5% skim milk for 30 min at 4° C. with gentle rocking. After blocking, the membrane was treated with primary antibodies: Anti-BUB1B (HPA008419, Human Protein Atlas, Sweden) and Anti-Beta actin (ab8227, Abcam) as a loading control overnight at 4° C. on a rocking platform. After the treatment of primary antibodies, the membrane was washed three times with TBS-T buffer (A09-7500-100, Medicago). Then, Goat anti-Rabbit IgG-HRP (ab205718, Abcam) was treated as the secondary antibody for 30 min at 4° C. with gentle rocking.

Caki-1 cells = assay: MTT cell viability assay of Caki-1 treated with TG-101209 and its alternatives
Description: as §2
The cytotoxic effects of the TG-101209 and its alternatives on the Caki-1 cells were tested by MTT (Thiazolyl Blue Tetrazolium Bromide) method. 1.5×10^4 cells were seeded per well in a 96-well plate in 100 μL growth media. […] After the incubation period, 5 mg/ml MTT (M2128, Sigma-Aldrich) solution in PBS (10 μL) was added to each well. After 1 hour, the MTT solution and all media were removed from the wells. 100 μl of DMSO was added and mixed to dissolve the formazan crystals. Cell viability was analysed by measuring the absorbance of the dissolved formazan at a wavelength of 570 nm with a microplate reader (Hidex Sense Beta Plus).

COc1cc(N2CCC(N3CCN(C)CC3)CC2)ccc1Nc1ncc(Cl)c(Nc2ccccc2S(=O)(=O)C(C)C)n1 [NVP-TAE684]
protein level of RRM2 (RRM2; Caki-1, 3 nM): significantly suppressed | cell viability (Caki-1; Caki-1, CCK-8, 3 nM): significantly reduced

Cc1cnc(Nc2ccc(N3CCN(C)CC3)cc2)nc1Nc1cccc(S(=O)(=O)NC(C)(C)C)c1 [TG-101209, reference compound]
protein level of BUB1B (BUB1B [1]): significantly decreased; also recorded: significantly reduced | expression levels of BUB1B (BUB1B [2]): significantly lower the expression levels of BUB1B | cell viability (Caki-1; Caki-1, CCK-8, 6 nM): significantly reduced | cell viability (MTT assay) (Caki-1 cells; Caki-1, 10 μM, 1 day): most profound effect on the cell viability | IC50 (Caki-1 cells; FIG. 43, assay not named, presumably Caki-1 cell viability): ~3000 nM | Ranking, Cell viability (%) (Caki-1 cells; top five target drugs, MTT assay, 10 μM, 1 day, rank 1 = greatest reduction): 5

Cc1c2oc3c(C)ccc(C(=O)N[C@@H]4C(=O)N[C@H](C(C)C)C(=O)N5CCC[C@H]5C(=O)N(C)CC(=O)N(C)[C@@H](C(C)C)C(=O)O[C@@H]4C)c3nc-2c(C(=O)N[C@@H]2C(=O)N[C@H](C(C)C)C(=O)N3CCC[C@H]3C(=O)N(C)CC(=O)N(C)[C@@H](C(C)C)C(=O)O[C@@H]2C)c(N)c1=O [actinomycin-d] (I: T[dV]P[Sar][NMeV] / II: T[dV]P[Sar][NMeV]; ester I:1-I:C, II:1-II:C; linker I:N-II:N via Actinocin(9to1))
protein level of RRM2 (RRM2; Caki-1, 0.3 nM): does not work for inhibiting RRM2

CC1=C(CO)C(=O)O[C@@H]([C@@H](C)[C@H]2CC[C@H]3[C@@H]4C[C@H]5O[C@]56[C@@H](O)C=CC(=O)[C@]6(C)[C@H]4CC[C@]23C)C1 [withaferin-a]
protein level of RRM2 (RRM2; Caki-1, 4 uM): significantly suppressed | cell viability (Caki-1; Caki-1, CCK-8, 4 uM): significantly reduced
